Experimental data taken from publication PMC3288053 (PLoS ONE, 2012).

Columns and labels:
Experiment in all cases: PTP enzyme inhibition assay (pNPP substrate)
Type in all cases: biochemical
PTP1B = target: T1, PTP1B (Homo sapiens, UniProt P18031)
T1 construct: pGEX4T-1-PTP1B1–321; GST (N); made in house; host or cells: E. coli BL21 (DE3)
T1 sequence (P18031 1-321): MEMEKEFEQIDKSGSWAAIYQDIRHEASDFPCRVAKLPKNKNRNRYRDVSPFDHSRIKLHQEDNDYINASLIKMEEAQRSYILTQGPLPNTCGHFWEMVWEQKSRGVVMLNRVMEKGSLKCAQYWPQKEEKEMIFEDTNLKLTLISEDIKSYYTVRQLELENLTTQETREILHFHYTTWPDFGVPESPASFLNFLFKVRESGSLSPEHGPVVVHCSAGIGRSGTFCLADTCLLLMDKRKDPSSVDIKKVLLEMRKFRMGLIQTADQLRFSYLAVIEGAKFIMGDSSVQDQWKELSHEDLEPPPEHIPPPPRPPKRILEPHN
Protocol: (§1) The enzymatic activities of the recombinant PTPs are measured at 25°C using pNPP as substrate. The initial velocities of enzymatic reactions are determined by continuously measuring the absorbance at 405 nm every 15 s using a microplate spectrophotometer (Bio-Rad). […] To determine the inhibition type, each concentration of Rut (0, 50 and 75 µM) is incubated with PTP1B (0.3 µM) in reaction buffer (50 mM HEPES, pH7.0, 1 mM EDTA, and 100 mM NaCl) for 10 min and the reactions are initiated by different concentrations of pNPP (0.5–10 mM). The inhibition type is determined using double-reciprocal plots. In determination of the selectivity of Rut against PTPs, the result is referred as no inhibition when 100 µM Rut inhibits no enzyme activity. The same reaction systems are designed for all PTPs including PTP1B.

CD45 = target: T2, CD45 (Homo sapiens, UniProt P08575); settings: PTPs 0.3 µM, pNPP 5 mM, 25°C; NI: No inhibition at 100 µM
T2 construct: pGEX2T-CD45_560–1256; GST (N); made in house; host or cells: E. coli BL21 (DE3)
Protocol: as §1

LAR = target: T3, LAR (Homo sapiens, UniProt P10586); settings: read-out: IC50 LAR; PTPs 0.3 µM, pNPP 5 mM, 25°C; NI: No inhibition at 100 µM
T3 construct: pGEX2T-LAR1282–1888; GST (N); made in house; host or cells: E. coli BL21 (DE3)
Protocol: as §1

TC-PTP = target: T4, TC-PTP (Homo sapiens, UniProt P17706); settings: PTPs 0.3 µM, pNPP 5 mM, 25°C; NI: No inhibition at 100 µM
T4 construct: pGEX4T-1-TC-PTP1–288; GST (N); made in house; host or cells: E. coli BL21 (DE3)
Protocol: as §1

PTPα = target: T5, PTPα (Homo sapiens, UniProt P18433); settings: read-out: IC50 PTPα; PTPs 0.3 µM, pNPP 5 mM, 25°C; NI: No inhibition at 100 µM
T5 construct: pGEX2T-PTPα182–803; GST (N); made in house; host or cells: E. coli BL21 (DE3)
Protocol: as §1

T2 sequence (P08575 610-1306 limits assumed): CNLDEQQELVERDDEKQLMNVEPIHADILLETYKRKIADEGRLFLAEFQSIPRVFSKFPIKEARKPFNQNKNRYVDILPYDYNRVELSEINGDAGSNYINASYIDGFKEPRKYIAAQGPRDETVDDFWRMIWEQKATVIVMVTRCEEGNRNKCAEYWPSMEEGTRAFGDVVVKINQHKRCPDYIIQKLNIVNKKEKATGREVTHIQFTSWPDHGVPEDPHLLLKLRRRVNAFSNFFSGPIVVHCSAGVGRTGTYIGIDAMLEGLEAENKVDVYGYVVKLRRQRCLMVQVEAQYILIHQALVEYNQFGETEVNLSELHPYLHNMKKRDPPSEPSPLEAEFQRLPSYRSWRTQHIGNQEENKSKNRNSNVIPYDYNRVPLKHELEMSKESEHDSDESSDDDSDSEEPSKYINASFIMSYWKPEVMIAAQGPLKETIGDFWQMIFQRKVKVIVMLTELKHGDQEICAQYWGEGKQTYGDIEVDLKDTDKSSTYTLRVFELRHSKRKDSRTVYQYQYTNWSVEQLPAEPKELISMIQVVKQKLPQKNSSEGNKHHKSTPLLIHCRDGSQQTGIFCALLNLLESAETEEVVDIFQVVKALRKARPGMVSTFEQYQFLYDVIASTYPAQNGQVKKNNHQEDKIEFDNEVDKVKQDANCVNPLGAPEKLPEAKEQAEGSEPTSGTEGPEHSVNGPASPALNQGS
T3 sequence (P10586 1301-1907 limits assumed): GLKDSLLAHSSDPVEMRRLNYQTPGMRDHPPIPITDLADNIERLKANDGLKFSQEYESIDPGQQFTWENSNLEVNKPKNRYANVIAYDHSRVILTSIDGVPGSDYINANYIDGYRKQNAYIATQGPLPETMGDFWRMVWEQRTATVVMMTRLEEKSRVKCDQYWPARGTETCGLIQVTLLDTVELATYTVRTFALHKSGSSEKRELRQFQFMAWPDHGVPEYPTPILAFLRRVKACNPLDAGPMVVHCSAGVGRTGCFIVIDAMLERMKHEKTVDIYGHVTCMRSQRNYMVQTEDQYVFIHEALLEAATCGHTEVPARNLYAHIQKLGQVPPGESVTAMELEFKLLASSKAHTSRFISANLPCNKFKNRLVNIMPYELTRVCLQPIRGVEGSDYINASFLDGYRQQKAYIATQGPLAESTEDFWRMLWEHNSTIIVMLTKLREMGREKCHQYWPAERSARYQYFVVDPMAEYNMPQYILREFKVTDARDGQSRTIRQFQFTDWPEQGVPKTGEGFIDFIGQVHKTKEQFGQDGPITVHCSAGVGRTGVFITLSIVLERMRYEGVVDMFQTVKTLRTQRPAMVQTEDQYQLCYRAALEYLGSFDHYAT
T4 sequence (P17706 1-288): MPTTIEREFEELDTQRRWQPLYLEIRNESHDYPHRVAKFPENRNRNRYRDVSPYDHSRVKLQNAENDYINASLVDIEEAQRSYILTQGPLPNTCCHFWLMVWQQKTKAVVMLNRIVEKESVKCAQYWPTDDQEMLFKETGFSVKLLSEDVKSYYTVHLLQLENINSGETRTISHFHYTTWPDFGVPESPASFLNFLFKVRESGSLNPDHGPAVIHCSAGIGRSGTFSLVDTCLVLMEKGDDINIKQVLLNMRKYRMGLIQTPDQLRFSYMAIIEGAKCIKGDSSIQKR

C=CC(C)(C)c1cc2cc3c(cc2oc1=O)O[C@H](C(C)(C)OC(C)=O)C3 [(+)-Rutamarin]
IC50 (PTP1B; PTPs 0.3 µM, pNPP 5 mM, 25°C, NI: No inhibition at 100 µM): 6.4 µM | inhibition type (Lineweaver-Burk, double-reciprocal plots) (PTP1B; Rut 0, 50 and 75 µM, pNPP 0.5–10 mM): competitive inhibitor | IC50 (CD45): > 100 µM | IC50 (LAR): > 100 µM | IC50 (TC-PTP): 26.8 µM | IC50 (PTPα): > 100 µM
